Reference: PubChem BioAssay (NCI)
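Test compounds were applied to cells in 96-well plates for 48 hours at 5 doses. GI50: concentration for 50% inhibition of growth. Definition used: TGI = concentration required for complete inhibition of growth.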

Assays:
Assay in all cases: NCI anticancer screen, dose series, 48 h
[1] = tested on: T-47D breast
[2] = tested on: SNB-19 CNS
[3] = tested on: TK-10 renal
[4] = tested on: NCI-H522 lung
[5] = tested on: BT-549 breast
[6] = tested on: NCI-H226 lung
[7] = tested on: HOP-62 NSCLC
[8] = tested on: SR leukemia
[9] = tested on: A549 NSCLC
[10] = tested on: PC-3 prostate

Row | SMILES | TGI [1] [µM] | TGI [2] [µM] | TGI [3] [µM] | TGI [4] [µM] | TGI [5] [µM] | TGI [6] [µM] | TGI [7] [µM] | TGI [8] [µM] | TGI [9] [µM] | TGI [10] [µM] | GI50 [1] [µM] | GI50 [2] [µM] | GI50 [3] [µM] | GI50 [4] [µM] | GI50 [5] [µM] | GI50 [6] [µM] | GI50 [7] [µM] | GI50 [8] [µM] | GI50 [9] [µM] | GI50 [10] [µM]
1 | O=C1N[C@H]2c3c(Cl)sc(Cl)c3C(=O)[C@H]2O1 | > 64.8 | 46.5 | > 100 | 3.43 | 45 | 42.3 | 42 | 5.81 | > 100 | > 62.5 |  |  |  |  |  |  |  |  |  | 
2 | CN(NC(=O)c1ccco1)C1=NCCCCN1 | > 100 | > 100 | > 100 | > 100 | > 100 | > 100 | > 100 | > 100 | > 100 | > 100 |  |  |  |  |  |  |  |  |  | 
3 | Cc1ncc([N+](=O)[O-])n1CCN(C)CCCCn1ccnc1[N+](=O)[O-] | > 100 | > 100 | > 100 |  | > 100 | > 100 | > 100 | > 100 | > 100 | > 100 |  |  |  |  |  |  |  |  |  | 
4 | CC12CC3c4ccccc4CN1C3(c1ccccc1)OC2=O (stereo unspecified) | > 100 | > 100 | > 100 | > 100 | > 100 | > 100 | > 100 |  | > 100 | > 100 |  |  |  |  |  |  |  |  |  | 
5 | Oc1ccc(-c2cc(-c3c(O)cc(O)cc3O)on2)cc1 | > 100 | > 100 | > 100 | > 100 | > 100 | > 100 | > 100 | > 100 | > 100 | > 100 |  |  |  |  |  |  |  |  |  | 
6 | CCOC(=O)C1(Cc2ccc(C)cc2)Cc2ccc(C)cc2C1=O (stereo unspecified) | > 74.6 | > 100 | > 100 | 36.9 | 80.8 | > 92.4 | > 100 | 68.8 | > 100 | > 100 |  |  |  |  |  |  |  |  |  | 
7 | C[N+]1(C)C2Cc3ccccc3C1Cc1ccccc12 | > 100 | > 100 | > 100 | > 100 | > 100 | > 100 | > 100 |  | > 100 | > 100 |  |  |  |  |  |  |  |  |  | 
8 | O=C(NCc1cn(Cc2cccc(Oc3ccccc3)c2)nn1)c1cccnc1Nc1ccccc1 | 63.2 | > 100 | 28.4 | 5.06 | 8.53 | > 100 | > 100 | > 100 | 95.2 | > 100 | 5.4 | 3.27 | 4.3 | 2.11 | 2.8 | 3.24 | 5.58 | 2.57 | 4.81 | 3.27
9 | CC(C)CN1CN(c2ccccc2)C2(CCN(CC(C)(c3ccc(F)cc3)C3OCCO3)CC2)C1=O (stereo unspecified) | 15.3 | 21.9 | 23.4 | 12.7 | 20.9 | 29.1 | 13.8 | 12.8 | 19.7 | 14.3 |  |  |  |  |  |  |  |  |  | 
10 | N#CI1OC(=O)c2ccccc21 | > 100 |  | > 100 | 55.6 | > 100 | > 100 | > 100 | > 100 | > 100 | > 100 |  |  |  |  |  |  |  |  |  | 
11 | N#CC(c1ccc(O)cc1)N1CCN(C(C#N)c2ccc(O)cc2)CC1 (stereo unspecified) | > 82.9 | 75.7 | > 100 | > 100 | > 100 | > 77.6 | 57.1 | > 100 | > 100 | > 100 |  |  |  |  |  |  |  |  |  | 
12 | COc1ccc(CN2C(=O)CCC/C=C\[C@H]2CI)cc1 | 6.69 | 25.9 | 25 | 26.5 | 33.7 | 25.5 | 31.1 | > 100 | 21.5 | 20.7 |  |  |  |  |  |  |  |  |  | 
13 | COC(=O)c1ccc(CN2CCc3c([nH]c4ccccc34)C2CO)o1 (stereo unspecified) | > 10 |  | > 10 | > 10 | > 10 |  | > 10 | > 10 | > 10 | > 10 |  |  |  |  |  |  |  |  |  | 
14 | C1=C2SSC3=CC=C(SSc4ccc(s4)SSC4=CC=C(SSC(=C1)S2)S4)S3 | > 100 | > 100 | > 100 | > 100 | > 100 | > 100 | > 100 | > 100 | > 100 | > 100 |  |  |  |  |  |  |  |  |  | 
15 | CC1(C)CCc2c(cc3c(c2O)CCC(C)(C)O3)O1 | > 100 | > 100 | > 100 | > 100 | > 100 | > 100 | > 100 | > 100 | > 100 | > 100 |  |  |  |  |  |  |  |  |  | 
16 | Cc1cc(-c2ccc(C(=O)C(Cl)(Cl)Cl)[nH]2)on1 | > 100 | > 100 | 69.1 | 97.4 | 98.1 | 62.9 | 24.8 |  | > 100 | > 100 |  |  |  |  |  |  |  |  |  | 
17 | NCCC1(N)CCNCC1 | > 100 | > 100 | > 100 | > 100 | > 100 | > 100 |  | > 100 | > 100 | > 100 |  |  |  |  |  |  |  |  |  | 
18 | Cc1ccc(N=Nc2c(O)c3ccccc3[nH]c2=O)c(S(=O)(=O)N(C)C)c1 | > 100 | > 100 | > 100 | > 100 | > 100 | > 100 | > 100 |  | > 100 | > 100 |  |  |  |  |  |  |  |  |  | 
19 | O=C1Nc2ccccc2C(=O)OC(Cc2ccccc2)=Nc2ccccc21 | > 100 | > 100 | > 100 | > 100 | > 100 | > 100 | > 100 | > 100 | > 100 | > 100 |  |  |  |  |  |  |  |  |  | 
20 | CCCCCCCCCCCCNC(=O)NCC(OCC)OCC | > 10 | > 10 | > 10 | > 10 | > 10 | > 10 | > 10 | > 10 | > 10 | > 10 |  |  |  |  |  |  |  |  |  | 
21 | C/C(=N\Nc1nc2cc(C)ccc2s1)c1ccccn1 | > 89.7 | 21.2 | > 64 | > 19.9 | > 69.1 | 9.11 | 3.62 | > 21.8 | > 31.6 | > 23.1 |  |  |  |  |  |  |  |  |  | 
